Experiments:
Assay type in all cases: cell-based, human
[1] = test system: IL-13 expression in endometrial stromal cells; experiment: Effect of ovarian steroids on IL-13 expression in endometrial stromal cells (quantitative RT-PCR, ELISA); conditions: for IL-13 expression, mRNA and protein level (summary statement): endometrial stromal cells; for IL-13 expression compared to control cells: stromal cells, various time points (e.g. 4, 6, 24 and 36 h after steroid addition)
Method: (§1) Cells. Uterine tissue was collected and endometrial stromal cells and their culture conditions were isolated as described previously. Tang et al., Endocrinology 135:450, 1994. The isolated glandular epithelial and stromal cells were grown as monolayers in DMEM-Ham's F-12 (1:1, v/v) supplemented with 10% fetal bovine serum (FBS). Their purity and homogeneity were determined immunocytochemically by the use of monoclonal antibodies to human desmin, smooth muscle α-actin, cytokeratin 19 and vimentin. Ovarian Steroids. To determine the effect of ovarian steroids regulate IL-13 and IL-15 expression in endometrial epithelial and stromal cells, cells were subcultured in 6-well dishes at an approximate density of at 10^6 cells/well, and incubated with phenol-free media containing 10% charcoal-stripped FBS for 48 hrs. The cells were made quiescent under a serum-free condition for 24 hrs, and then treated with E2 (17 β estradiol), MPA (medroxyprogesterone acetate) or E2+MPA either alone or in appropriate combinations, added to phenol-free medium containing 2% charcoal-stripped FBS (cFBS) (Hyclone, Logan, Utah). The level of IL-13 and IL-15 mRNA and protein was determined as described above after appropratie time intervals using quantitative RT-PCR and ELISA.

[2] = test system: IL-13 expression in endometrial epithelial cells; experiment: Effect of ovarian steroids on IL-13 expression in endometrial epithelial cells (quantitative RT-PCR, ELISA); conditions: for IL-13 expression, mRNA and protein level (summary statement): endometrial epithelial cells; for IL-13 expression compared to control cells: epithelial cells
Method: as §1

[3] = test system: IL-15 expression in endometrial stromal cells; experiment: Effect of ovarian steroids on IL-15 expression in endometrial stromal cells (quantitative RT-PCR, ELISA); conditions: for IL-15 expression, mRNA and protein level (summary statement): endometrial stromal cells; for IL-15 expression: stromal cells, various time points
Method: as §1

[4] = test system: IL-15 expression in endometrial epithelial cells; experiment: Effect of ovarian steroids on IL-15 expression in endometrial epithelial cells (quantitative RT-PCR, ELISA); conditions: for IL-15 expression, mRNA and protein level (summary statement): endometrial epithelial cells; for IL-15 expression: epithelial cells, various time points
Method: as §1

[5] = test system: endometrial stromal cells; experiment: 3H-thymidine incorporation and cell proliferation (MTT) assay, stromal cells
Method: (§2) Cells. Uterine tissue was collected and endometrial stromal cells and their culture conditions were isolated as described previously. Tang et al., Endocrinology 135:450, 1994. The isolated glandular epithelial and stromal cells were grown as monolayers in DMEM-Ham's F-12 (1:1, v/v) supplemented with 10% fetal bovine serum (FBS). Their purity and homogeneity were determined immunocytochemically by the use of monoclonal antibodies to human desmin, smooth muscle α-actin, cytokeratin 19 and vimentin.
(§3) ^3H-Thymidine Incorporation and Cell Proliferation Assay. Endometrial epithelial and stromal cells were cultured either in 24- or 96-well dishes at approximate density of 2.5×10^5 and 2.5×10^4 cell/well, respectively, in the presence of 10% FBS for 48 h, they were then made quiescent in serum-free condition for 48 h as previously described. Tang et al., supra. The quiescent cells were incubated either in serum-free, or 2% FBS supplemented media, in the presence of appropriate concentrations of IL-13 and/or IL-15 and 2 μCi/ml ^3H-thymidine for 48 h. The rate of incorporated ^3H-thymidine determined as previously described. Tang et al., supra. Cell proliferation assays were preformed by seeding epithelial and stromal cells in 96-well microplates or 24 well dishes, respectively, as described above and cultured in the presence of appropriate concentrations of IL-13 and IL-15 in the presence or absence of 2% FBS. After 48 h the cells were washed and incubated with a dye solution composed of 3-(4,5-dimethylthiazol-2-yl)-2,5-diphenyltetrazolium bromide (MTT) for 4 h at 37° C., solubilized using Promega Cell-Titer assay, and the optical density was measured using Thermomax microplate reader (Molecular Devices) at 570 nm as previously described (Tang et al., supra).

[6] = test system: endometrial epithelial cells; experiment: 3H-thymidine incorporation and cell proliferation (MTT) assay, epithelial cells
Method: as §2, §3

[7] = test system: TNFα receptor type I expression in stromal cells; experiment: Effect of IL-13 and IL-15 on TNFα receptor type I expression in stromal cells
Method: as §2
(§4) To determine whether IL-13 and IL-15 alter the expression of tumor necrosis factor alpha receptor, the stromal and epitheleal cells (isolated as described in Example3) were cultured, made quiescent, and then treated with IL-13 and IL-15 at appropriate concentration added to medium containing 2% cFBS. After specific time intervals the culture condition media were collected and assay for TNF-α receptor type I as previously described (Faber et al., Obstet Gynecol 98:668–673, 2001; Chegini et al., J Soc Gynecol Invest 6. 154–157, 1999) using ELISA and comparison to known concentrations of standard (R & D system).

[8] = test system: TNFα receptor type I expression in epithelial cells; experiment: Effect of IL-13 and IL-15 on TNFα receptor type I expression in epithelial cells
Method: as §2, §4

Compound | IL-13 expression, mRNA and protein level (summary statement) [1] | IL-13 expression compared to control cells [1] | IL-13 expression, mRNA and protein level (summary statement) [2] | IL-13 expression compared to control cells ([2]; 24 and 36 h) | IL-15 expression, mRNA and protein level (summary statement) [3] | IL-15 expression [3] | IL-15 expression, mRNA and protein level (summary statement) [4] | IL-15 expression [4] | 3H-thymidine incorporation compared to control cells [5] | cell proliferation compared to control cells [5] | 3H-thymidine incorporation compared to control cells [6] | cell proliferation compared to control cells [6] | IL-13 expression compared to control cells ([2]; 6 h) | TNFα receptor type I protein expression ([7]; 24 and 36 h) | TNFα receptor type I mRNA production ([8]; 2, 4 and 6 h) | TNFα receptor type I protein expression ([8]; 36 h) | TNFα receptor type I mRNA expression compared to control cells ([7]; 6 h) | TNFα receptor type I protein expression ([7]; 36 h)
C[C@]12CC[C@@H]3c4ccc(O)cc4CC[C@H]3[C@@H]1CC[C@@H]2O [E2, 17 β estradiol] | modulate | statistically significant increase | modulate | statistically significant increase | modulate | statistically significant increase | modulate | statistically significant increase | modulated | modulated | modulated | modulated | – | – | – | – | – | –
CC(=O)O[C@]1(C(C)=O)CC[C@H]2[C@@H]3C[C@H](C)C4=CC(=O)CC[C@]4(C)[C@H]3CC[C@@]21C [MPA, medroxyprogesterone acetate] | modulate | statistically significant increase | modulate | statistically significant increase | modulate | statistically significant increase | modulate | statistically significant increase | modulated | modulated | modulated | modulated | statistically significant increase | – | – | – | – | –
IL-13: cytokine interleukin-13 added to stromal and epithelial cell cultures | – | – | – | – | – | – | – | – | – | – | – | – | – | statistically significant increase | increased | statistically significant increase | – | –
IL-15: cytokine interleukin-15 added to stromal and epithelial cell cultures | – | – | – | – | – | – | – | – | – | – | – | – | – | – | – | – | marked increase | statistically significant increase
